In the oligonucleotide strings, read from the 5' end, every base follows the letter of its sugar. An asterisk marks phosphorothioate; unmarked linkages are phosphodiester. Other units and linkages are bracketed, terminal groups are in braces. A string of capitals states the bases alone. e = 2'-O-(2-methoxyethyl) (MOE); [5mC] = 5-methylcytosine; d = 2'-deoxy (DNA)
Test system: human growth hormone receptor mRNA
Experiment: Inhibition of human growth hormone receptor mRNA levels in MCF7 cells, quantitative real-time PCR
Format: cell-based
Parameters: concentration or dose not given beside the values
Conditions: averages from three experiments
Method: The human breast carcinoma cell line MCF-7 was obtained from the American Type Culture Collection (Manassas, Va.). MCF-7 cells were routinely cultured in DMEM low glucose (Gibco/Life Technologies, Gaithersburg, Md.) supplemented with 10% fetal calf serum (Gibco/Life Technologies, Gaithersburg, Md.). Cells were routinely passaged by trypsinization and dilution when they reached 90% confluence. Cells were seeded into 96-well plates (Falcon-Primaria #3872) at a density of 7000 cells/well for use in RT-PCR analysis.
When cells reached 65-75% confluency, they were treated with oligonucleotide. For cells grown in 96-well plates, wells were washed once with 100 μL OPTI-MEM™-1 reduced-serum medium (Invitrogen Corporation, Carlsbad, Calif.) and then treated with 130 μL of OPTI-MEM™-1 containing 3.75 μg/mL LIPOFECTIN™ (Invitrogen Corporation, Carlsbad, Calif.) and the desired concentration of oligonucleotide. Cells are treated and data are obtained in triplicate. After 4-7 hours of treatment at 37° C., the medium was replaced with fresh medium. Cells were harvested 16-24 hours after oligonucleotide treatment.
Total RNA was isolated using an RNEASY 96™ kit and buffers purchased from Qiagen Inc. (Valencia, Calif.) following the manufacturer's recommended procedures. Briefly, for cells grown on 96-well plates, growth medium was removed from the cells and each well was washed with 200 μL cold PBS. 150 μL Buffer RLT was added to each well and the plate vigorously agitated for 20 seconds. 150 μL of 70% ethanol was then added to each well and the contents mixed by pipetting three times up and down. The samples were then transferred to the RNEASY 96™ well plate attached to a QIAVAC™ manifold fitted with a waste collection tray and attached to a vacuum source. Vacuum was applied for 1 minute. 500 μL of Buffer RW1 was added to each well of the RNEASY 96™ plate and incubated for 15 minutes and the vacuum was again applied for 1 minute. An additional 500 μL of Buffer RW1 was added to each well of the RNEASY 96™ plate and the vacuum was applied for 2 minutes. 1 mL of Buffer RPE was then added to each well of the RNEASY 96™ plate and the vacuum applied for a period of 90 seconds. The Buffer RPE wash was then repeated and the vacuum was applied for an additional 3 minutes. The plate was then removed from the QIAVAC™ manifold and blotted dry on paper towels. The plate was then re-attached to the QIAVAC™ manifold fitted with a collection tube rack containing 1.2 mL collection tubes. RNA was then eluted by pipetting 140 μL of RNAse free water into each well, incubating 1 minute, and then applying the vacuum for 3 minutes.
Quantitation of growth hormone receptor mRNA levels was accomplished by real-time quantitative PCR using the ABI PRISM™ 7600, 7700, or 7900 Sequence Detection System (PE-Applied Biosystems, Foster City, Calif.) according to manufacturer's instructions. This is a closed-tube, non-gel-based, fluorescence detection system which allows high-throughput quantitation of polymerase chain reaction (PCR) products in real-time. As opposed to standard PCR in which amplification products are quantitated after the PCR is completed, products in real-time quantitative PCR are quantitated as they accumulate. This is accomplished by including in the PCR reaction an oligonucleotide probe that anneals specifically between the forward and reverse PCR primers, and contains two fluorescent dyes. A reporter dye (e.g., FAM or JOE, obtained from either PE-Applied Biosystems, Foster City, Calif., Operon Technologies Inc., Alameda, Calif. or Integrated DNA Technologies Inc., Coralville, Iowa) is attached to the 5′ end of the probe and a quencher dye (e.g., TAMRA, obtained from either PE-Applied Biosystems, Foster City, Calif., Operon Technologies Inc., Alameda, Calif. or Integrated DNA Technologies Inc., Coralville, Iowa) is attached to the 3′ end of the probe. When the probe and dyes are intact, reporter dye emission is quenched by the proximity of the 3′ quencher dye. […]

First: 227452 (antisense eT*e[5mC]*eA*eG*eG*dG*d[5mC]*dA*dT*dT*d[5mC]*dT*dT*dT*d[5mC]*e[5mC]*eA*eT*eT*e[5mC]) [compound 227452]
Second: 227453 (antisense e[5mC]*eA*eT*eA*eA*dT*d[5mC]*dA*dG*dG*dG*d[5mC]*dA*dT*dT*e[5mC]*eT*eT*eT*e[5mC]) [compound 227453]
The “% INHIB of human growth hormone receptor mRNA levels” value (from here on “% INHIB”) of the first is higher: 79% for the first, 52% for the second.

Compared with “227464 (antisense e[5mC]*e[5mC]*eT*eT*eT*dA*dA*dT*d[5mC]*dT*dT*dT*dG*dG*dA*eA*e[5mC]*eT*eG*eG) [compound 227464]”, “227468 (antisense eT*e[5mC]*eA*eT*e[5mC]*dA*dA*dT*dA*dT*d[5mC]*dT*dA*dG*d[5mC]*eT*e[5mC]*eA*eA*eT) [compound 227468]” is higher in “% INHIB” value: 58% for the first, 62% for the second.

First: 227469 (antisense e[5mC]*eT*eT*eA*eG*dA*dA*dG*dT*d[5mC]*dT*dG*dT*d[5mC]*dT*eG*eT*eG*eT*e[5mC]) [compound 227469]
Second: 227475 (antisense e[5mC]*e[5mC]*eT*eG*e[5mC]*dT*dG*dG*dT*dG*dT*dA*dA*dT*dG*eT*e[5mC]*eG*e[5mC]*eT) [compound 227475]
The “% INHIB” value of the first is lower: 63% for the first, 68% for the second.

Going from “227480 (antisense eA*eT*eG*eT*eA*dA*dA*dT*dG*dT*d[5mC]*d[5mC]*dT*d[5mC]*dT*eT*eG*eG*eT*eT) [compound 227480]” to “227481 (antisense eT*eG*eG*eT*eG*dA*dT*dG*dT*dA*dA*dA*dT*dG*dT*e[5mC]*e[5mC]*eT*e[5mC]*eT) [compound 227481]”, the “% INHIB” value falls from 66% to 45%.

Going from “227482 (antisense eT*eT*e[5mC]*eT*eG*dT*dG*dG*dT*dG*dA*dT*dG*dT*dA*eA*eA*eT*eG*eT) [compound 227482]” to “227483 (antisense eA*eG*eG*e[5mC]*eT*dT*dT*d[5mC]*dT*dG*dT*dG*dG*dT*dG*eA*eT*eG*eT*eA) [compound 227483]”, the “% INHIB” value rises from 53% to 75%.

Compared with “227484 (antisense eT*eG*eG*eT*eA*dA*dG*dG*d[5mC]*dT*dT*dT*d[5mC]*dT*dG*eT*eG*eG*eT*eG) [compound 227484]”, “227488 (antisense eA*eG*eT*eT*eG*dG*dT*d[5mC]*dT*dG*dT*dG*d[5mC]*dT*d[5mC]*eA*e[5mC]*eA*eT*eA) [compound 227488]” is higher in “% INHIB” value: 63% for the first, 86% for the second.

Going from “227489 (antisense eT*eG*eT*eT*e[5mC]*dA*dG*dT*dT*dG*dG*dT*d[5mC]*dT*dG*eT*eG*e[5mC]*eT*e[5mC]) [compound 227489]” to “227490 (antisense eG*e[5mC]*eA*eT*eG*dA*dT*dT*dT*dT*dG*dT*dT*d[5mC]*dA*eG*eT*eT*eG*eG) [compound 227490]”, the “% INHIB” value falls from 75% to 67%.

Compared with “227499 (antisense eT*eA*eT*eA*eA*dA*dA*dG*dG*dG*d[5mC]*dT*dT*dT*dG*eT*eA*eA*eA*eA) [compound 227499]”, “227500 (antisense e[5mC]*eA*eT*eA*eG*d[5mC]*dA*dG*d[5mC]*dA*dA*dA*dG*dT*dA*eG*e[5mC]*eA*eG*eA) [compound 227500]” is higher in “% INHIB” value: 14% for the first, 69% for the second.

Going from “227501 (antisense eG*e[5mC]*eT*eA*eT*dT*dT*dT*dT*dG*dG*d[5mC]*dT*dA*dT*eA*eG*eA*eA*eA) [compound 227501]” to “227502 (antisense eG*eA*eT*eT*eG*dA*dG*dG*dT*dA*dT*dT*dT*dA*dG*e[5mC]*eT*eA*eT*eT) [compound 227502]”, the “% INHIB” value falls from 64% to 56%.

Compared with “272302 (antisense eG*eA*eT*e[5mC]*e[5mC]*dA*dT*dA*d[5mC]*d[5mC]*dT*dG*dT*dA*dG*eG*eA*e[5mC]*e[5mC]*eT) [compound 272302]”, “272303 (antisense e[5mC]*e[5mC]*eA*eG*eA*dG*dA*dT*d[5mC]*d[5mC]*dA*dT*dA*d[5mC]*d[5mC]*eT*eG*eT*eA*eG) [compound 272303]” is lower in “% INHIB” value: 60% for the first, 55% for the second.

Going from “272304 (antisense eT*eG*e[5mC]*eT*eA*dA*dG*dG*dA*dT*dA*dG*d[5mC]*dT*dG*e[5mC]*eT*eG*eT*eG) [compound 272304]” to “272305 (antisense eT*eT*eG*eT*e[5mC]*dT*dT*dT*dA*dG*dG*d[5mC]*d[5mC]*dT*dG*eG*eA*eT*eT*eA) [compound 272305]”, the “% INHIB” value rises from 48% to 68%.

Compared with “272306 (antisense eT*eT*eA*eG*eA*dA*dG*dA*dA*dT*dT*dT*dG*dT*d[5mC]*eT*eT*eT*eA*eG) [compound 272306]”, “272307 (antisense eG*eT*eG*eA*eA*dT*dT*dT*dA*dG*dG*d[5mC]*dT*d[5mC]*d[5mC]*eT*eT*eA*eG*eA) [compound 272307]” is higher in “% INHIB” value: 13% for the first, 55% for the second.

First: 272308 (antisense eG*e[5mC]*eT*eG*eT*dA*dT*dG*dG*dG*dT*d[5mC]*d[5mC]*dT*dA*eG*eG*eT*eT*e[5mC]) [compound 272308]
Second: 272309 (antisense eT*eA*eA*e[5mC]*eA*dG*d[5mC]*dT*dG*dT*dT*dT*dT*d[5mC]*d[5mC]*e[5mC]*e[5mC]*eA*eG*e[5mC]) [compound 272309]
The “% INHIB” value of the first is lower: 57% for the first, 85% for the second.

First: 272310 (antisense eT*eT*eT*e[5mC]*eA*dT*d[5mC]*d[5mC]*dA*d[5mC]*dT*dG*dT*dA*d[5mC]*e[5mC]*eA*e[5mC]*e[5mC]*eA) [compound 272310]
Second: 272311 (antisense eT*eT*eG*e[5mC]*eA*d[5mC]*dT*dA*dT*dT*dT*d[5mC]*dA*dT*d[5mC]*eA*eA*e[5mC]*eA*eG) [compound 272311]
The “% INHIB” value of the first is higher: 76% for the first, 47% for the second.

Compared with “272312 (antisense eG*eG*eG*eT*eG*dG*dA*dT*d[5mC]*dT*dG*dG*dT*dT*dG*e[5mC]*eA*e[5mC]*eT*eA) [compound 272312]”, “272313 (antisense eA*eT*eT*eG*e[5mC]*dG*dT*dG*dG*dT*dG*d[5mC]*dT*dT*d[5mC]*e[5mC]*e[5mC]*eA*eT*e[5mC]) [compound 272313]” is higher in “% INHIB” value: 57% for the first, 77% for the second.

First: 272314 (antisense eT*eA*eG*eG*eG*dT*d[5mC]*d[5mC]*dA*dT*d[5mC]*dA*dT*dT*dT*eT*e[5mC]*e[5mC]*eA*eT) [compound 272314]
Second: 272315 (antisense e[5mC]*eA*eA*eT*eG*dA*dG*dT*dA*d[5mC]*dA*d[5mC]*dT*dG*dG*eA*eA*e[5mC]*eT*eG) [compound 272315]
The “% INHIB” value of the first is higher: 56% for the first, 53% for the second.

Going from “272316 (antisense eA*eA*e[5mC]*eT*e[5mC]*dG*d[5mC]*d[5mC]*dA*dT*dA*dA*dT*dT*dT*e[5mC]*e[5mC]*eA*eG*eA) [compound 272316]” to “272317 (antisense eA*eG*e[5mC]*e[5mC]*e[5mC]*dA*dA*dA*dT*dA*dT*dT*d[5mC]*d[5mC]*dA*eA*eA*eG*eA*eT) [compound 272317]”, the “% INHIB” value rises from 64% to 65%.

Source: patent US9988635B2, “Modulation of growth hormone receptor expression and insulin-like growth factor expression” (Antisense Therapeutics Limited, priority 2003, dated 2018)
